Test system: mesenchymal stem cell-like cells derived from iPS cells established from a FOP patient (ACVR1 R206H)
Test: Activin-A-induced chondrogenic differentiation of FOP patient-derived cells (sulfated glycosaminoglycan quantification)
Format: cell-based
Details: 100 ng/mL human activin-A, compound 0.01 to 100 nM, six days, P<0.0001 at 0.1-100 nM rapamycin, 1-100 nM everolimus or temsirolimus vs activin-A only
From the text: According to the method of Yamanaka et. al., (Cell, 2007, 131 (5), […]), iPS cells derived from a FOP patient (referred to as “patient-derived iPS cells” in some cases hereafter) were established. […] This mutation is a mutation that replaces the 206th arginine residue into a histidine residue in the amino acid sequence of ACVR1 (the amino acid sequence as set forth in SEQ ID NO:2). In addition, with a view toward using as a control, the mutation of the ACVR1 gene described above was corrected to the normal type (the wild type) by the gene correction with a BAC (Bacterial Artificial Chromosome) knock-in vector, thus establishing corrected iPS cells which may be referred to as “gene-corrected (rescued) iPS cell clone” in some cases hereafter.
The patient-derived iPS cells were cultured on a Matrigel coated plate [manufactured by Becton, Dickinson and Company; trade name, Growth Factor Reduced (GFR) BD MATRIGEL (registered trademark)] in mTeSR1 (manufactured by STEMCELL Technologies Inc.) under a feeder-free condition for two days. […]
These mesenchymal stem cell-like cells were cultured under a condition of a chondrogenic induction medium according to the method of Umeda (Sci. Rep, 2012, 2, 455) for six days and differentiated into chondrocytes. […] Also, compounds for which their inhibitory effect against the chondrogenic differentiation were to be evaluated (concentrations of from 0.01 to 100 nM) were added simultaneously with human activin-A (referred to as “activin-A” in some cases hereafter). […] The degree of differentiation into chondrocytes was measured with a quantification kit for sulfated glycosaminoglycan (manufactured by Biocolor Inc.; trade name, Blyscan Glycosaminoglycan Assay Kit). […]

Row | SMILES | chondrogenic differentiation (amount of sulfated glycosaminoglycan)
1 | CO[C@H]1C[C@@H]2CC[C@@H](C)[C@@](O)(O2)C(=O)C(=O)N2CCCC[C@H]2C(=O)O[C@H]([C@H](C)C[C@@H]2CC[C@@H](OP(C)(C)=O)[C@H](OC)C2)CC(=O)[C@H](C)/C=C(\C)[C@@H](O)[C@@H](OC)C(=O)[C@H](C)C[C@H](C)/C=C/C=C/C=C/1C [ridaforolimus] | suppressed the chondrogenic differentiation
2 | CO[C@H]1C[C@@H]2CC[C@@H](C)[C@@](O)(O2)C(=O)C(=O)N2CCCC[C@H]2C(=O)O[C@H]([C@H](C)C[C@@H]2CC[C@@H](OCCO)[C@H](OC)C2)CC(=O)[C@H](C)/C=C(\C)[C@@H](O)[C@@H](OC)C(=O)[C@H](C)C[C@H](C)/C=C/C=C/C=C/1C [everolimus] | suppressed the chondrogenic differentiation
3 | CO[C@H]1C[C@@H]2CC[C@@H](C)[C@@](O)(O2)C(=O)C(=O)N2CCCC[C@H]2C(=O)O[C@H]([C@H](C)C[C@@H]2CC[C@@H](OC(=O)C(C)(CO)CO)[C@H](OC)C2)CC(=O)[C@H](C)/C=C(\C)[C@@H](O)[C@@H](OC)C(=O)[C@H](C)C[C@H](C)/C=C/C=C/C=C/1C [temsirolimus] | suppressed the chondrogenic differentiation
